In the supplement of paper PMC6045584:
± gives the standard deviation of the averaged measurements.

Experiments:
[1] = compound: CC/C(=C(\c1ccc(O)cc1)c1ccc(OCCN(C)C)cc1)c1ccccc1 [AFIMOXIFENE]; experiment: surviving fraction relative to DMSO-only wells; higher = less growth inhibition; settings: exposure time: 5 days
Outline: (§1)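 Five days of continuous inhibitor exposure, at 0.5, 1, 5, 10, 50, 100, 500 and 1000 nM, followed a 24-hour period after log-phase tumour cell lines were seeded at 250–500 cells per well in 384-well plates. Surviving fraction was derived from CellTiter-Glo luminescence relative to the median of DMSO-only wells. Plates were read after 10 minutes at room temperature, and lines screened three times were kept only if replicate Pearson r >0.7 and median Z' >0.3.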

[2] = compound: Cc1c(N)nc([C@H](CC(N)=O)NC[C@H](N)C(N)=O)nc1C(=O)N[C@H](C(=O)N[C@H](C)[C@@H](O)[C@H](C)C(=O)N[C@H](C(=O)NCCc1nc(-c2nc(C(=O)NCCC[S+](C)C)cs2)cs1)[C@@H](C)O)[C@@H](OC1OC(CO)C(O)C(O)C1OC1OC(CO)C(O)C(OC(N)=O)C1O)c1cnc[nH]1 [BLEOMYCIN]; experiment: as above; settings: exposure time: 5 days
Outline: as §1

Test System | surviving fraction ([1]; 0.5 nM) | surviving fraction ([1]; 1 nM) | surviving fraction ([1]; 5 nM) | surviving fraction ([1]; 10 nM) | surviving fraction ([1]; 50 nM) | surviving fraction ([1]; 100 nM) | surviving fraction ([1]; 500 nM) | surviving fraction ([1]; 1000 nM) | surviving fraction ([2]; 0.5 nM) | surviving fraction ([2]; 1 nM) | surviving fraction ([2]; 5 nM) | surviving fraction ([2]; 10 nM) | surviving fraction ([2]; 50 nM) | surviving fraction ([2]; 100 nM) | surviving fraction ([2]; 500 nM) | surviving fraction ([2]; 1000 nM)
SG27 HEADNECK | 1.09 ± 0.16 | 1.06 ± 0.14 | 1.05 ± 0.023 | 1.02 ± 0.059 | 1.16 ± 0.063 | 1 ± 0.23 | 1.21 ± 0.11 | 1.1 ± 0.078 | 1.12 ± 0.06 | 0.997 ± 0.085 | 0.934 ± 0.081 | 1.02 ± 0.011 | 0.949 ± 0.11 | 1.01 ± 0.17 | 1.01 ± 0.11 | 0.864 ± 0.14
SG28 HEADNECK | 1.208 ± 0.0021 | 1.04 ± 0.057 | 1.1 ± 0.15 | 0.965 ± 0.1 | 1.14 ± 0.1 | 0.985 ± 0.04 | 1.12 ± 0.04 | 1.05 ± 0.088 | 0.864 ± 0.081 | 0.917 ± 0.11 | 0.892 ± 0.056 | 0.907 ± 0.13 | 0.944 ± 0.074 | 0.899 ± 0.053 | 0.909 ± 0.028 | 0.868 ± 0.1
SG31 HEADNECK | 1.4 ± 0.15 | 1.21 ± 0.07 | 1.18 ± 0.16 | 1.06 ± 0.095 | 1.07 ± 0.15 | 1.09 ± 0.051 | 1.08 ± 0.099 |  | 0.979 ± 0.12 | 0.924 ± 0.018 | 0.767 ± 0.12 | 0.805 ± 0.12 | 0.83 ± 0.046 | 0.733 ± 0.066 | 0.712 ± 0.13 | 0.595 ± 0.065
SG32 HEADNECK | 1.09 ± 0.33 | 1.93 ± 1.3 | 1.26 ± 0.11 | 1.18 ± 0.25 | 1.09 ± 0.093 | 0.982 ± 0.053 | 1.12 ± 0.087 | 1.21 ± 0.2 | 0.921 ± 0.32 | 0.967 ± 0.23 | 0.818 ± 0.069 | 0.825 ± 0.17 | 0.824 ± 0.071 | 0.698 ± 0.048 | 0.593 ± 0.094 | 0.427 ± 0.05
SG43 HEADNECK | 0.934 ± 0.082 | 1.06 ± 0.26 | 1.14 ± 0.34 | 0.825 ± 0.14 | 0.903 ± 0.016 | 1 ± 0.14 | 1.16 ± 0.12 | 0.927 ± 0.13 | 1.13 ± 0.058 | 1.08 ± 0.13 | 1.02 ± 0.096 | 0.81 ± 0.18 | 0.583 ± 0.015 | 0.78 ± 0.087 | 0.613 ± 0.17 | 0.391 ± 0.13
SIHA CERVIX | 1.1 ± 0.029 | 1.07 ± 0.051 | 1.09 ± 0.072 | 1.19 ± 0.031 | 1.15 ± 0.06 | 1.21 ± 0.032 | 1.13 ± 0.062 | 1.09 ± 0.058 | 0.959 ± 0.083 | 0.957 ± 0.017 | 1.02 ± 0.042 | 1.02 ± 0.046 | 1.08 ± 0.071 | 1.08 ± 0.059 | 0.961 ± 0.053 | 0.967 ± 0.024
SJSA1 BONE | 1.6 ± 0.021 | 1.74 ± 0.059 | 1.65 ± 0.083 | 1.74 ± 0.087 | 1.78 ± 0.027 | 1.52 ± 0.05 | 1.79 ± 0.059 | 1.27 ± 0.068 | 0.855 ± 0.056 | 0.861 ± 0.079 | 0.839 ± 0.026 | 0.773 ± 0.011 | 0.654 ± 0.029 | 0.504 ± 0.025 | 0.481 ± 0.029 | 0.44 ± 0.024
SKBR3 BREAST | 1.16 ± 0.077 | 1.1 ± 0.16 | 1.16 ± 0.11 | 1.12 ± 0.16 | 1.17 ± 0.13 | 1.06 ± 0.19 | 1.16 ± 0.12 | 0.923 ± 0.12 | 0.886 ± 0.19 | 0.721 ± 0.1 | 0.81 ± 0.16 | 0.768 ± 0.15 | 0.872 ± 0.15 | 0.889 ± 0.099 | 0.87 ± 0.11 | 0.783 ± 0.13
SNU475 LIVER | 1.06 ± 0.024 | 1.09 ± 0.055 | 1.03 ± 0.016 | 1.04 ± 0.057 | 1.01 ± 0.022 | 1.07 ± 0.034 | 1.01 ± 0.054 | 1.07 ± 0.062 | 0.8647 ± 0.0059 | 0.859 ± 0.0092 | 0.838 ± 0.014 | 0.844 ± 0.024 | 0.8043 ± 0.0023 | 0.752 ± 0.043 | 0.53 ± 0.025 | 0.384 ± 0.0084
SUM44 BREAST | 1.17 ± 0.34 | 1.22 ± 0.34 | 1.2 ± 0.26 | 1.2 ± 0.39 | 1.3 ± 0.43 | 1.19 ± 0.36 | 1.13 ± 0.29 | 1.08 ± 0.32 | 0.917 ± 0.045 | 0.918 ± 0.013 | 0.92 ± 0.058 | 0.93 ± 0.025 | 1.06 ± 0.037 | 0.973 ± 0.088 | 0.853 ± 0.059 | 0.824 ± 0.023
SUM149 BREAST | 1.12 ± 0.094 | 1.02 ± 0.1 | 1.03 ± 0.078 | 1.03 ± 0.14 | 0.861 ± 0.031 | 0.911 ± 0.076 | 1.01 ± 0.11 | 0.868 ± 0.032 | 0.779 ± 0.092 | 0.889 ± 0.09 | 0.707 ± 0.034 | 0.451 ± 0.08 | 0.273 ± 0.029 | 0.255 ± 0.069 | 0.106 ± 0.015 | 0.048 ± 0.013
SUM149.B1*.S BREAST | 1.17 ± 0.043 | 1.1 ± 0.022 | 1.14 ± 0.065 | 1.16 ± 0.087 | 1.18 ± 0.051 | 1.16 ± 0.099 | 1.14 ± 0.07 | 1.2 ± 0.034 | 0.884 ± 0.032 | 0.943 ± 0.024 | 0.928 ± 0.028 | 0.883 ± 0.042 | 0.937 ± 0.066 | 0.939 ± 0.059 | 0.55 ± 0.061 | 0.394 ± 0.096
SUM159 BREAST | 1.12 ± 0.024 | 1.12 ± 0.028 | 1.12 ± 0.026 | 1.11 ± 0.013 | 1.09 ± 0.025 | 1.13 ± 0.023 | 1.114 ± 0.01 | 1.06 ± 0.016 | 1.07 ± 0.18 | 1.02 ± 0.094 | 1.01 ± 0.082 | 0.999 ± 0.086 | 0.948 ± 0.034 | 0.908 ± 0.031 | 0.673 ± 0.13 | 0.246 ± 0.065
SYO1 SYNOVIAL | 0.993 ± 0.023 | 1.01 ± 0.04 | 1.04 ± 0.013 | 1.03 ± 0.072 | 0.954 ± 0.035 | 0.982 ± 0.028 | 0.939 ± 0.023 | 1.04 ± 0.087 | 0.809 ± 0.058 | 0.778 ± 0.044 | 0.753 ± 0.035 | 0.695 ± 0.029 | 0.45 ± 0.014 | 0.355 ± 0.032 | 0.104 ± 0.019 | 0.0704 ± 0.019
T47D BREAST | 1.06 ± 0.052 | 1.11 ± 0.032 | 0.955 ± 0.0067 | 0.98 ± 0.048 | 0.95 ± 0.032 | 0.958 ± 0.034 | 0.888 ± 0.024 | 0.883 ± 0.037 | 0.947 ± 0.019 | 0.915 ± 0.011 | 0.891 ± 0.02 | 0.9369 ± 0.0063 | 0.951 ± 0.02 | 0.923 ± 0.039 | 0.693 ± 0.011 | 0.57 ± 0.03
U2OS BONE | 1.06 ± 0.056 | 1.07 ± 0.035 | 1.08 ± 0.024 | 1.1 ± 0.022 | 1.12 ± 0.015 | 1.1 ± 0.017 | 1.08 ± 0.057 | 1.01 ± 0.021 | 0.904 ± 0.028 | 0.942 ± 0.05 | 0.933 ± 0.04 | 0.9 ± 0.039 | 1.01 ± 0.023 | 0.8983 ± 0.0064 | 0.734 ± 0.017 | 0.617 ± 0.011
VCAP PROSTATE | 0.993 ± 0.093 | 1.06 ± 0.1 | 1.07 ± 0.065 | 1.11 ± 0.098 | 1.12 ± 0.11 | 1.09 ± 0.019 | 1.07 ± 0.17 | 0.941 ± 0.075 | 0.905 ± 0.018 | 0.953 ± 0.077 | 1.07 ± 0.12 | 1.05 ± 0.12 | 1.07 ± 0.12 | 1.02 ± 0.078 | 0.84 ± 0.024 | 0.889 ± 0.081
VP229 BREAST | 1.25 ± 0.37 | 1.2 ± 0.13 | 1.09 ± 0.08 | 1.16 ± 0.13 | 1.14 ± 0.07 | 1.16 ± 0.061 | 0.989 ± 0.21 | 1 ± 0.13 | 0.776 ± 0.093 | 0.759 ± 0.052 | 0.754 ± 0.081 | 0.711 ± 0.072 | 0.915 ± 0.089 | 0.893 ± 0.093 | 0.837 ± 0.08 | 0.665 ± 0.076
YAMATO SYNOVIAL | 1.22 ± 0.14 | 1.27 ± 0.022 | 1.37 ± 0.14 | 1.4 ± 0.037 | 1.23 ± 0.14 | 1.28 ± 0.096 | 1.23 ± 0.066 | 1.31 ± 0.14 | 0.889 ± 0.13 | 0.929 ± 0.095 | 0.955 ± 0.081 | 1.03 ± 0.075 | 1.21 ± 0.083 | 1.11 ± 0.08 | 0.871 ± 0.088 | 0.796 ± 0.033
ZR751 BREAST | 1.13 ± 0.23 | 1.21 ± 0.18 | 1.09 ± 0.21 | 1.31 ± 0.19 | 1.09 ± 0.22 | 1.07 ± 0.17 | 1.03 ± 0.19 | 0.993 ± 0.084 | 0.985 ± 0.037 | 0.975 ± 0.083 | 0.925 ± 0.1 | 0.957 ± 0.19 | 0.905 ± 0.073 | 0.924 ± 0.17 | 0.897 ± 0.15 | 0.69 ± 0.12
